Reference: a melting point compilation (Tetko et al.; mined from patent text by program, amines drawn as free bases though some values may be those of a salt)

First: CCCCOCCOc1ccc(-c2ccc3c(c2)C=C(C(=O)Nc2ccc(S(=O)Cc4ncnn4C)cc2)CCN3CC(C)C)cc1 (centres undefined)
Second: Nc1nc2c(s1)CCN(C(=O)c1ccc(NC(=O)c3ccccc3-c3ccccc3)cc1)c1ccccc1-2
The melting point of the first is lower: 135 to 138 °C for the first, greater than 250 °C for the second.

First: CCc1cccc(CC)c1NC(=O)NCC(c1ccccc1)c1ccccc1
Second: O=C1CNC(=O)C(CSC(c2ccccc2)(c2ccccc2)c2ccccc2)N1 (centres undefined)
The melting point of the first is lower: 200 to 201 °C for the first, 225 to 227 °C for the second.

First: Cc1c(NC(=O)CC(C)(C)C)c(C)c2c(c1-c1ccccn1)OCC2c1ccc(C(C)C)cc1 (centres undefined)
Second: CCCCCc1c(C(C)C)nc(C(C)C)c(CO)c1-c1ccc(C(C)C)cc1
The melting point of the first is higher: 198 to 200 °C for the first, 42 to 44 °C for the second.

Compared with `CCCn1ncc(C#N)c1N`, `CCC(CC)c1ccc(C#N)c2nc(Nc3c(C)cc(Cl)cc3OC)n(C)c12` is higher in melting point: 85 to 90 °C for the first, 223 to 225 °C for the second.

Compared with `Cc1c(I)ccc2c1C(=O)NS2(=O)=O`, `Cc1ccc2c(=O)n3nc(C)cc3[nH]c2n1` is higher in melting point: 257 to 258 °C for the first, greater than 300 °C for the second.

First: CC(C)(C)OC(=O)Cn1ccn(C2CCc3ccccc3C2)c1=S (centres undefined)
Second: Cc1occc(=O)c1OC(=O)c1ccccc1
The melting point of the first is higher: 167 to 169 °C for the first, 106 to 110 °C for the second.

First: O=c1cc(-c2ccccc2)oc2ccc(OCCCCCCCCN3CCC(O)CC3)cc12
Second: Cc1[nH]c2ccccc2c1CCCN1CCC(c2noc3ccccc23)CC1
The melting point of the first is lower: 57 to 58 °C for the first, 110 to 112 °C for the second.

Compared with `COc1ccc(C(=O)CC2CSCCC2=O)cc1` (centres undefined), `CCOC(=O)c1cnc(=O)n2c1sc1cc(OC)ccc12` is higher in melting point: 123 to 125 °C for the first, 231 to 232 °C for the second.

First: CCOC(=O)C(=Cc1cc(OC)c(OC)cc1OC)C(=O)OCC
Second: Cc1ccc(C(N)=O)c(C)c1
The melting point of the first is lower: 86 to 87 °C for the first, 184 to 186 °C for the second.

First: CN(C(=O)OC(C)(C)C)[C@H]1CCN(C(=O)c2ccc(-c3[nH]nc4c3C(=O)c3c(NC(=O)NN5CCOCC5)cccc3-4)s2)C1
Second: COC(=O)C1=C(CC(=O)N2CCN(C)CC2)NC(CS(=O)c2ccccc2C)=C(C(=O)OC)C1c1c(Cl)cccc1Cl (centres undefined)
The melting point of the first is higher: greater than 300 °C for the first, 183 °C for the second.

Compared with `CC(C)CC(=O)NC(=O)c1nnn(Cc2ccccc2)c1N`, `CCCC(=O)NCCCn1c(C)nc2c(N)nc3ccccc3c21` is higher in melting point: 138 to 150 °C for the first, 222 to 223 °C for the second.

First: COC(=O)c1cccn2c(I)cnc12
Second: COc1ccccc1Nc1ncc(C(=O)O)c(=O)[nH]1
The melting point of the first is lower: 99 to 110 °C for the first, 251 to 253 °C for the second.

Compared with `OCCC=Cc1ccc(-c2ccccc2)cc1`, `CCn1cc(-c2ccccc2)c(=O)c(-c2cccc(C(F)(F)F)c2)c1` is lower in melting point: 142 °C for the first, 98 to 100 °C for the second.

First: O=C(NCc1ccc(Cl)cc1)c1cn2c3c(cc(CN4CCOCC4)cc3c1=O)OC(CNCc1ccncc1)C2 (centres undefined)
Second: CCCCN(C1=C(O)C[C@@](CCc2cccc(O)c2)(C2CCCC2)OC1=O)c1ccccc1
The melting point of the first is higher: 164 to 167 °C for the first, 64 to 66 °C for the second.

Compared with `CSC(=C(C#N)C#N)N(C)N=Cc1ccccc1`, `N#CCC(CC#N)c1ccccc1Br` is lower in melting point: 159 to 160 °C for the first, 94 to 96 °C for the second.

First: O=c1oc(-c2ccccc2)cc(O)c1S(=O)(=O)Cc1ccccc1
Second: N#CC(C(=O)NCC(=O)O)C(=O)c1nn(-c2ccccc2)c2c1CSc1ccccc1-2 (centres undefined)
The melting point of the first is lower: 152 to 153 °C for the first, 224 to 226 °C for the second.

First: CCCCCCCCCCCCCCCCOCC(COC(c1ccccc1)(c1ccccc1)c1ccccc1)COS(C)(=O)=O (centres undefined)
Second: CCCCCCCCCCNC(=O)CCCCC(=O)OO
The melting point of the first is lower: 39 °C for the first, 77 to 85 °C for the second.

First: CCc1nn(C2CCCC2)c2c1CCn1c-2nnc1C(C)(C)C
Second: COc1ccc2cc(-c3cn([C@H]4CN5CCC4CC5)nn3)ccc2c1
The melting point of the first is lower: 150 to 151 °C for the first, 186 °C for the second.

First: CN(C)CCOc1cc(-c2ccccc2)nn1N
Second: COn1cnc2c(N)nc3ccccc3c21
The melting point of the first is lower: 80 °C for the first, 238 to 240 °C for the second.

Compared with `Fc1ccc2c(c1)Oc1ccccc1S2`, `CC(C(N)=O)c1ccc2c(c1)C(=O)Cc1ccccc1O2` (centres undefined) is higher in melting point: 77.5 to 79 °C for the first, 154 to 155 °C for the second.

First: COC(=O)c1nn(C)nc1C(=O)OC
Second: COC(=O)c1ccc(C(OC(C)=O)OC(C)=O)cc1
The melting point of the first is higher: 86 to 87 °C for the first, 64 to 67 °C for the second.

First: CCc1c(-c2ccc(O)cc2)c2ccc3c(N)ccc1n32
Second: COC(=O)C1Cc2c(OC)cccc2N1S(=O)(=O)c1ccc(-c2ccc(F)cc2F)cc1 (centres undefined)
The melting point of the first is lower: 147 to 149 °C for the first, 162 °C for the second.

First: CC(=O)c1cccc(-c2ncccc2OC2SCC(O)C(O)C2O)c1 (centres undefined)
Second: CCOC(=O)c1cc2c(cn1)[nH]c1ccccc12
The melting point of the first is lower: 128 to 133 °C for the first, 229 °C for the second.

Compared with `CCOC(=O)/C=C/c1c(CC)cnc2c(NC(=O)c3c(Cl)cccc3Cl)cccc12`, `COC(=O)CC(=O)/C=C/c1c(-c2ccc(F)cc2)n(C(C)C)c(=O)c2ccccc12` is higher in melting point: 115 to 118 °C for the first, 123 to 125 °C for the second.

First: C=C(C)c1cnc(C2=NC(C)(C(C)C)C(=O)N2)c(C(=O)OC)c1 (centres undefined)
Second: CCCCn1nc(C)c(C(=O)OC)c1Cc1ccc(-c2ccccc2S(N)(=O)=O)cc1
The melting point of the first is higher: 90.5 to 92.5 °C for the first, 49 to 54 °C for the second.

First: CCCCN(CCCC)c1ccc(C=Cc2ccc(C=CC3=C(C#N)C(=C(C#N)C#N)OC3(C)C(F)(F)F)s2)c(OCc2ccccc2)c1 (centres undefined)
Second: COc1cc(COc2nn(C)cc2C(N)=O)ccc1OCc1nc(-c2ccccc2)oc1C
The melting point of the first is higher: 184 to 185 °C for the first, 168 to 169 °C for the second.

First: Cc1ccc2c(c1)SC(c1ccc(OCCCCCBr)cc1)C(=O)N2C (centres undefined)
Second: CC(C)(O)CCCCCc1cccc(CCc2cc(O)cc(O)c2)c1
The melting point of the first is lower: 81 to 82 °C for the first, 102 to 103 °C for the second.

Compared with `Nc1cccc2c1N1CCN=C1S2`, `c1cc(C2=NCCS2)nc(C2OCCO2)c1` is lower in melting point: 229 °C for the first, 50 to 52 °C for the second.

First: CCCN(CCO)C(=O)c1ccc(C(=O)N2CCN(c3ncccc3NC(C)C)CC2)cc1
Second: O=C1N(CCCO)c2ccccc2C12COc1cc3c(cc12)OCCO3 (centres undefined)
The melting point of the first is lower: 79 to 82 °C for the first, 157 to 158 °C for the second.

Compared with `N[C@@]1(C(=O)O)C[C@H](NC(=O)Nc2c(Cl)cccc2Cl)[C@H]2[C@H](C(=O)O)[C@H]21` (relative stereo), `Cc1cccc(C(=O)CCl)c1O` is lower in melting point: greater than 250 °C for the first, 65 to 66 °C for the second.

Compared with `O=C1NC(=O)C2CCCC12` (centres undefined), `C=CCC(C)(C)C(=O)NC1CCCNC(=O)C1` (centres undefined) is lower in melting point: 89 °C for the first, 71 to 72 °C for the second.

First: Cc1cc(C)n2nc(Sc3ccccc3Cl)nc2n1
Second: CNCC1CN(c2ccc3ccccc3c2)C(=O)O1 (centres undefined)
The melting point of the first is higher: 143 °C for the first, 76.5 to 78 °C for the second.

First: CC1(Oc2ccc(N)cc2)C2CC3CC(C2)CC1C3 (centres undefined)
Second: CN1C2CCC1CN(c1ccc3cc([N+](=O)[O-])ccc3n1)C2
The melting point of the first is lower: 95.6 to 97.9 °C for the first, 152 to 154 °C for the second.

Compared with `CCCc1nn(C)c2c(=O)[nH]c(-c3cc(S(=O)(=O)Cl)cc4c3OCC4)nc12`, `Cc1nc2c(s1)-c1nc(Nc3ccc(N4CCOCC4)cc3)ncc1CC2` is higher in melting point: 221 to 222 °C for the first, 236 to 237 °C for the second.

First: CCC12CCC3C4CCC(OC)=CC4=CCC3C1C(OC(C)=O)CC2=O (centres undefined)
Second: CC(C)[C@@H](NCC1(O)OC[C@@H](O)[C@@H](O)[C@@H]1O)C(=O)O (some centres undefined)
The melting point of the first is higher: 190 °C for the first, 125 to 126 °C for the second.

First: CC1NC(=O)NN=C1c1ccc(S(N)(=O)=O)cc1 (centres undefined)
Second: CCC1=C(C#N)C(c2ccccc2OC)c2c[nH]nc2N1 (centres undefined)
The melting point of the first is higher: 259 to 264 °C for the first, 230 to 232 °C for the second.

First: COc1ncnc2c1ncn2[C@H](C)[C@](O)(Cn1cncn1)c1ccc(F)cc1F
Second: COc1cc(C(O)(C(F)(F)F)C(F)(F)F)cc(C)c1O
The melting point of the first is higher: 124 to 125 °C for the first, 44 to 45 °C for the second.
